Data taken from ChEMBL document CHEMBL1201862, “PubChem BioAssay data set” (2004).
Calls of active or inactive are those of the source.

What was measured:
[1] = NIH-3T3 fibroblast cytotoxicity, dose response, cytotoxicity control, cell-based, fluorescence, Alamar Blue, secondary assay (AID 2327); type: functional;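 also: NIH-3T3 mouse fibroblasts cultured with fluconazole at 8 µg/mL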
[2] = Vero E6 cell cytotoxicity, dose response, cytotoxicity control for non-replicating M. tuberculosis project, secondary assay (AID 492998); type: functional, VeroE6; conditions: Vero C1008
cells = type: functional
[3] = biological target: T1, Serine/threonine-protein phosphatase (Candida dubliniensis (strain CD36 / CBS 7987 / NCPF 3949 / NRRLY-17841) (Yeast), UniProt B9W6M3); assay: blockers of CaCl2-induced CDRE-lacZ signaling – S. cerevisiae, luminescence, secondary, dose response (AID 2388); type: functional, cell-based;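 also: yeast reporter cells carrying a calcineurin-responsive lacZ construct stimulated with calcium chloride; luminescent beta-galactosidase reporter signal in whole cells rather than isolated phosphatase activity; potency for inhibition where a drop in reporter signal means calcineurin blockade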
T1 sequence (B9W6M3 whole entry): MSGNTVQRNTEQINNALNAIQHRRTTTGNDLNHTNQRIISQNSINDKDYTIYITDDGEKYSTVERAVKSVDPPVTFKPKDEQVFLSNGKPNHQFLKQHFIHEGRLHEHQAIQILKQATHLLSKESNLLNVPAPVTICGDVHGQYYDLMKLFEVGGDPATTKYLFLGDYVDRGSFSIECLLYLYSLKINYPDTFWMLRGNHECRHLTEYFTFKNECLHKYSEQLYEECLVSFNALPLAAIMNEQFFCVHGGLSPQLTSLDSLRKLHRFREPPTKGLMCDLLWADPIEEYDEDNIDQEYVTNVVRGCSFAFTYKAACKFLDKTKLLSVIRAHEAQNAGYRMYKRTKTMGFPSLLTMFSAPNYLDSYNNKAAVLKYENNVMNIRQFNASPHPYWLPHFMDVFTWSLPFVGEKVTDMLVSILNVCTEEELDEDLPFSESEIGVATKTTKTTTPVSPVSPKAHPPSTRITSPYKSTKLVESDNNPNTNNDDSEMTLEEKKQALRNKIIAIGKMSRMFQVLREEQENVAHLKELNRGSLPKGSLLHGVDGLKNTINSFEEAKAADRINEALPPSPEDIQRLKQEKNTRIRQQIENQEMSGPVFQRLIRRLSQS

[4] = biological target: T2, Short transient receptor potential channel 4 (Mus musculus, UniProt Q9QUQ5); assay: calcium entry via TRPC4 opening agents – cell-based, HEK293 TRPC4/mu-opioid, Fluo-4 calcium, dose response (AID 434937); type: functional
T2 sequence (Q9QUQ5 whole entry): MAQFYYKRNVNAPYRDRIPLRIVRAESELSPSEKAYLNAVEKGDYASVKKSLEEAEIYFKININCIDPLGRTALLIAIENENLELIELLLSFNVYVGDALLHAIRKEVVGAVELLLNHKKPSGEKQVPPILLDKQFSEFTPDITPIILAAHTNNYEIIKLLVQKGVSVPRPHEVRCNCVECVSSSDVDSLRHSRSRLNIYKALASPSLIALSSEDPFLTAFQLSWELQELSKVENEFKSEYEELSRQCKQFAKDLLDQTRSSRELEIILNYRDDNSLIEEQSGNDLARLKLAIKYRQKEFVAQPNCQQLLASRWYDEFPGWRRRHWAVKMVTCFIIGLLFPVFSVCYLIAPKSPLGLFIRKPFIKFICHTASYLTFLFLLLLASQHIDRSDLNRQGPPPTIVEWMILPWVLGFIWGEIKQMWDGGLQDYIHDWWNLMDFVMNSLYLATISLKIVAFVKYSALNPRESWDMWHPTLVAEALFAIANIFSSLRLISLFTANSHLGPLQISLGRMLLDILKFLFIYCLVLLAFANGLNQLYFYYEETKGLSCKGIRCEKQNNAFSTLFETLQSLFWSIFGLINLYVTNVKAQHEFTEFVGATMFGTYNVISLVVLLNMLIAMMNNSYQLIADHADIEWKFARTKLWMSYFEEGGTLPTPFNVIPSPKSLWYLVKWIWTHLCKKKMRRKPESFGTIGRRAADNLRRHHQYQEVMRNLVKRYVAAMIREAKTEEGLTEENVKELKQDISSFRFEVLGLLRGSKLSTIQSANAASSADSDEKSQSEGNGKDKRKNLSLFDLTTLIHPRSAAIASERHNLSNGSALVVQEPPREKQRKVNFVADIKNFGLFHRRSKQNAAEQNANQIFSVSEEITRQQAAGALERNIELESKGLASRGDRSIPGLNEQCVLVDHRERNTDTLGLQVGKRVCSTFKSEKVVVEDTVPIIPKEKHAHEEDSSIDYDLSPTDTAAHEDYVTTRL

[5] = HepG2 cell cytotoxicity, dose response, cytotoxicity control for non-replicating M. tuberculosis project (AID 489018); type: functional; conditions: Mycobacterium tuberculosis
[6] = fluconazole-exposed Candida albicans growth modulators – fluorescence, retest, confirmation (AID 2467); type: functional, cell-based
[7] = biological target: ATP-dependent molecular chaperone HSP82 (Candida albicans (strain WO-1) (Yeast), UniProt C4YTQ8); assay: steroid-induced GRE reporter decrease in yeast – S. cerevisiae, luminescence, Hsp90 inhibitor project, dose response (AID 2400); type: functional, cell-based;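 also: beta-galactosidase luminescence from glucocorticoid response element reporter as proxy for Hsp90 function; inhibitor potency where signal loss means Hsp90 inhibition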
[8] = THP-1 cell cytotoxicity, dose response, cytotoxicity control for non-replicating M. tuberculosis project (AID 489025); type: functional
[9] = biological target: T1, Serine/threonine-protein phosphatase; assay: Fluorescence Cell-Based Secondary Assay to Identify Inhibitors of Calcineurin. [Related pubchem assays (depositor defined):AID1979, AID2007]; type: functional
Cytochrome P450 2D6 = Cytochrome P450 2D6 (Homo sapiens, UniProt P10635);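 also: CYP2D6 member of a cytochrome P450 panel assay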
Cytochrome P450 1A2 = biological target: T3, Cytochrome P450 1A2 (Homo sapiens, UniProt P05177);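 also: PubChem cytochrome P450 panel assay, CYP1A2 panel member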
T3 sequence (P05177 whole entry): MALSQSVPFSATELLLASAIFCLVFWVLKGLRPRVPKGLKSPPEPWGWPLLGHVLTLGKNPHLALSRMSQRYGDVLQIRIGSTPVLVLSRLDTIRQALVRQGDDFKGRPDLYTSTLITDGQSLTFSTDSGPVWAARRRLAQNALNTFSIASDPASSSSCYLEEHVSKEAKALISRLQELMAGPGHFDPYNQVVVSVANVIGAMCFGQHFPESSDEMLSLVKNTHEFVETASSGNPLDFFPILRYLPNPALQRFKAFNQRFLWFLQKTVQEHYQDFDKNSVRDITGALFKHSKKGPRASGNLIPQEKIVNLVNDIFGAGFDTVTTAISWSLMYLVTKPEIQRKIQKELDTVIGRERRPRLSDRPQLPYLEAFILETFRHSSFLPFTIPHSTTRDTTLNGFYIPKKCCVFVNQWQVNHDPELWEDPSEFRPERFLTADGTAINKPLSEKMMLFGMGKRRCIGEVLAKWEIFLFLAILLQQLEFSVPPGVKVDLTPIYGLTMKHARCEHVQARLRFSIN

Cytochrome P450 2C9 = Cytochrome P450 2C9 (Homo sapiens, UniProt P11712)
Sequence of Cytochrome P450 2C9 (P11712 whole entry): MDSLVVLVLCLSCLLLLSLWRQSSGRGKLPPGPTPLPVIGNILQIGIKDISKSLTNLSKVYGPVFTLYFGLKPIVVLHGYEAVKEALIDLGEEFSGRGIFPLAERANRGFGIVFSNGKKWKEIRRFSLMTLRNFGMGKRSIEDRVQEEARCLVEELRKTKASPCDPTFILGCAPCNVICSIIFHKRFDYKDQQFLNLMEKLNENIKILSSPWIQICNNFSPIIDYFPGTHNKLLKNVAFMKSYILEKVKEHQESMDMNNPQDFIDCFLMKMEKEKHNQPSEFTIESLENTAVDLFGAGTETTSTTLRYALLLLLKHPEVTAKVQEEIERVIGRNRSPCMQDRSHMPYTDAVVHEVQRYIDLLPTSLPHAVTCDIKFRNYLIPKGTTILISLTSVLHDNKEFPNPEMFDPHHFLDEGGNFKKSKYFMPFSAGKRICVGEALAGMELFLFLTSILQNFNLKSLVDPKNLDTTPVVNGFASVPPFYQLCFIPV

Cytochrome P450 2C19 = Cytochrome P450 2C19 (Homo sapiens, UniProt P33261); assay: Cytochrome panel assay with activity outcomes. Panel member name: p450-cyp2c19 Compounds with AC50 equal or less than 10 uM are considered active; type: functional
Cytochrome P450 3A4 = Cytochrome P450 3A4 (Homo sapiens, UniProt P08684);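 also: CYP3A4 tested as one member of a cytochrome P450 panel screen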
Sequence of Cytochrome P450 3A4 (P08684 whole entry): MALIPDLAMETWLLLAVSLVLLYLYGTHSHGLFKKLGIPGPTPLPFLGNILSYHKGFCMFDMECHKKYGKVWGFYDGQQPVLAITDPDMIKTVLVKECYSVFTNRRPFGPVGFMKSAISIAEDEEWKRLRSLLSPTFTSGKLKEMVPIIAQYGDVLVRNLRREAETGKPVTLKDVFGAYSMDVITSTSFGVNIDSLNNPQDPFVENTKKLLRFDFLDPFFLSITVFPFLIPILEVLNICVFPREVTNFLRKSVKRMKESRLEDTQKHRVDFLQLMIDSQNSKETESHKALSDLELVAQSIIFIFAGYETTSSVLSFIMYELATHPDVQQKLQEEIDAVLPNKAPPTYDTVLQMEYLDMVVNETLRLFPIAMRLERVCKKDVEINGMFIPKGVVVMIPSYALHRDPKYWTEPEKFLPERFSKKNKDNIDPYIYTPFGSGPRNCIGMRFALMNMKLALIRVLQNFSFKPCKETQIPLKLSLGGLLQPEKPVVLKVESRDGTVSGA

[10] = biological target: Eukaryotic translation initiation factor 4E (Mus musculus, UniProt P63073); assay: blockers of eIF4G binding by eIF4E – biochemical, TR-FRET, dose response (AID 855); type: functional;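 also: potency for disrupting eIF4E binding to eIF4GI seen as loss of FRET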
Sequence of Eukaryotic translation initiation factor 4E (P63073 whole entry): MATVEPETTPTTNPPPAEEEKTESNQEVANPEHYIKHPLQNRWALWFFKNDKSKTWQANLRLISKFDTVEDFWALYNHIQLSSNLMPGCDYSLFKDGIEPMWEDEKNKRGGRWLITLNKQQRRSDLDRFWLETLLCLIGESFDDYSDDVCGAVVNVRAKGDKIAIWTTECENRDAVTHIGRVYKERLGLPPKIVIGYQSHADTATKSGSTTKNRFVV

[11] = biological target: Sphingosine 1-phosphate receptor 1 (Homo sapiens, UniProt P21453); assay: Fluorescence-based counterscreen assay for S1P4 agonists: Cell-based dose response high throughput screening assay to identify agonists of the Sphingosine 1-Phosphate Receptor 1 (S1P1). [Related pubchem assays (depositor defined):AID1509, AID1523, AID1801, AID463107, AID463118, AID463119, AID463122, AID463123, AID463129, AID463225, AID504400, AID504460]; type: functional
Sequence of Sphingosine 1-phosphate receptor 1 (P21453 whole entry): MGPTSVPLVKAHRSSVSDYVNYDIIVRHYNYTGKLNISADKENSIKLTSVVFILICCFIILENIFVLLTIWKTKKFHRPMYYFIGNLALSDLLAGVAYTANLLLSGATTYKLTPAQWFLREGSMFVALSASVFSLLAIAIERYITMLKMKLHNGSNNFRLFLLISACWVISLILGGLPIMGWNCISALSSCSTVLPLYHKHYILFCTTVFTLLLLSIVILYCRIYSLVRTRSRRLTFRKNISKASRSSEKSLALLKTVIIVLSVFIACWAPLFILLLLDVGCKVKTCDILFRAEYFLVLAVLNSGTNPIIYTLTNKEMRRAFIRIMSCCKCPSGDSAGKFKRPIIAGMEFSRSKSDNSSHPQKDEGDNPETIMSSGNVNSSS

[12] = biological target: T4, Sphingosine 1-phosphate receptor 4 (Homo sapiens, UniProt O95977); assay: Fluorescence dose response cell-based high throughput screening assay for agonists of the Sphingosine 1-Phosphate Receptor 4 (S1P4). [Related pubchem assays: 1509 (Primary screen.), 1523 (Confirmation screen in triplicates.)]; type: functional
T4 sequence (O95977 whole entry): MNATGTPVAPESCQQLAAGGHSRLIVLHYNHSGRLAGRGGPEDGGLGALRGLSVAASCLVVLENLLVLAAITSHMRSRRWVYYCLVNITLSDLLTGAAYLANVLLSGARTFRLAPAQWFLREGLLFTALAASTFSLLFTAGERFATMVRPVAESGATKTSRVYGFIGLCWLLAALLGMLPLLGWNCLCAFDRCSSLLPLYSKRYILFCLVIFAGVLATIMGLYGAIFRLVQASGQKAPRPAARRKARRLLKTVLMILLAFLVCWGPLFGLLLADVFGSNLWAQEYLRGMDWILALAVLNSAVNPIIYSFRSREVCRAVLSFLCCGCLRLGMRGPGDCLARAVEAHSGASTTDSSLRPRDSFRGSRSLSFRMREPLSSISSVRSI

[13] = biological target: Voltage-dependent T-type calcium channel subunit alpha-1H (Homo sapiens, UniProt O95180); type: functional;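 also: channel activity triggered by adding a high calcium stimulation buffer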
Mu-type opioid receptor = Mu-type opioid receptor (Homo sapiens, UniProt P35372); assay: HTS Image-Based Screen for Agonists of the MOR Receptor. [Related pubchem assays (depositor defined):AID1777, AID1785, AID1786, AID2133]; type: functional;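 also: imaging of beta-arrestin GFP recruitment into spots after receptor activation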
[14] = biological target: T5, Kappa-type opioid receptor (Homo sapiens, UniProt P41145); type: functional
T5 sequence (P41145 whole entry): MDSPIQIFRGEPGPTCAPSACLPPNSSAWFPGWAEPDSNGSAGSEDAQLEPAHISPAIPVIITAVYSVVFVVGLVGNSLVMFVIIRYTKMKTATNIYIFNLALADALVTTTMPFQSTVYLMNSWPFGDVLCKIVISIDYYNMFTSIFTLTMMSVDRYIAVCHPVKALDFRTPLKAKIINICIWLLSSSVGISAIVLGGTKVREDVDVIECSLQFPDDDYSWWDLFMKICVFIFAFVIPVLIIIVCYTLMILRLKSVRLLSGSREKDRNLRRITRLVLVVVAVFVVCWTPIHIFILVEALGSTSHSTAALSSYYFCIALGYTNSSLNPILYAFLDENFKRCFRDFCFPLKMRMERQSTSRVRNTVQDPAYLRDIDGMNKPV

Beta-galactosidase = Beta-galactosidase (Escherichia coli, UniProt Q8VNN2); type: functional
[15] = biological target: T5, Kappa-type opioid receptor; type: functional; remark: listed apart in the source
[16] = biological target: T6, Delta-type opioid receptor (Homo sapiens, UniProt P41143); assay: HTS Image-Based Screen for Antagonists of the DOR Receptor. [Related pubchem assays (depositor defined):AID1777, AID1785, AID1786, AID2133]; type: functional
T6 sequence (P41143 whole entry): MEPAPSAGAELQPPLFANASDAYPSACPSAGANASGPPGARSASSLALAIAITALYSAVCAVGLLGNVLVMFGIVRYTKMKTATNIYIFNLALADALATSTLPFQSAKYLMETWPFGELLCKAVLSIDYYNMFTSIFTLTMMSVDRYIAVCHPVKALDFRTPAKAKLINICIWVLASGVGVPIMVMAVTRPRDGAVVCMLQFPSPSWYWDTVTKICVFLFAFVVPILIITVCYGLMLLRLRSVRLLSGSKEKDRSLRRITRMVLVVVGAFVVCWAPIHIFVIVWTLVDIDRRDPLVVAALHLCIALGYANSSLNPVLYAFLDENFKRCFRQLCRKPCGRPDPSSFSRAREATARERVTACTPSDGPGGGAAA

[17] = biological target: T6, Delta-type opioid receptor; assay: HTS Image-Based Screen for Agonists of the DOR Receptor. [Related pubchem assays (depositor defined):AID1777, AID1786, AID2133]; type: functional
[18] = biological target: UDP-galactopyranose mutase (Mycobacterium tuberculosis, UniProt P9WIQ1); assay: Inhibitors of Mycobacterium tuberculosis UDP-galactopyranose mutase (UGM) enzyme Measured in Biochemical System Using Plate Reader - 2105-02_Inhibitor_Dose_CherryPick_Activity. [Related pubchem assays (depositor defined):AID504439]
Salmon testes DNA = assay: acridine orange-DNA binding displacement – biochemical, fluorescence polarization, cherry-picked samples, set 2, artefact control for KSHV LANA DNA-binding inhibitor project, dose response (AID 504727); parameters: species or system Salmonidae
ORF 73 = ORF 73 (Human herpesvirus 8, UniProt O40947); assay: KSHV LANA DNA-binding disruption – biochemical, fluorescence polarization, cherry-picked samples, dose response (AID 504725); parameters: species or system Human gammaherpesvirus 8;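 also: fluorescence polarization of a labeled DNA duplex reporting LANA DNA binding; potency is for inhibitors that block LANA binding to the DNA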
Sequence of ORF 73 (O40947 whole entry, the tested form may be a part): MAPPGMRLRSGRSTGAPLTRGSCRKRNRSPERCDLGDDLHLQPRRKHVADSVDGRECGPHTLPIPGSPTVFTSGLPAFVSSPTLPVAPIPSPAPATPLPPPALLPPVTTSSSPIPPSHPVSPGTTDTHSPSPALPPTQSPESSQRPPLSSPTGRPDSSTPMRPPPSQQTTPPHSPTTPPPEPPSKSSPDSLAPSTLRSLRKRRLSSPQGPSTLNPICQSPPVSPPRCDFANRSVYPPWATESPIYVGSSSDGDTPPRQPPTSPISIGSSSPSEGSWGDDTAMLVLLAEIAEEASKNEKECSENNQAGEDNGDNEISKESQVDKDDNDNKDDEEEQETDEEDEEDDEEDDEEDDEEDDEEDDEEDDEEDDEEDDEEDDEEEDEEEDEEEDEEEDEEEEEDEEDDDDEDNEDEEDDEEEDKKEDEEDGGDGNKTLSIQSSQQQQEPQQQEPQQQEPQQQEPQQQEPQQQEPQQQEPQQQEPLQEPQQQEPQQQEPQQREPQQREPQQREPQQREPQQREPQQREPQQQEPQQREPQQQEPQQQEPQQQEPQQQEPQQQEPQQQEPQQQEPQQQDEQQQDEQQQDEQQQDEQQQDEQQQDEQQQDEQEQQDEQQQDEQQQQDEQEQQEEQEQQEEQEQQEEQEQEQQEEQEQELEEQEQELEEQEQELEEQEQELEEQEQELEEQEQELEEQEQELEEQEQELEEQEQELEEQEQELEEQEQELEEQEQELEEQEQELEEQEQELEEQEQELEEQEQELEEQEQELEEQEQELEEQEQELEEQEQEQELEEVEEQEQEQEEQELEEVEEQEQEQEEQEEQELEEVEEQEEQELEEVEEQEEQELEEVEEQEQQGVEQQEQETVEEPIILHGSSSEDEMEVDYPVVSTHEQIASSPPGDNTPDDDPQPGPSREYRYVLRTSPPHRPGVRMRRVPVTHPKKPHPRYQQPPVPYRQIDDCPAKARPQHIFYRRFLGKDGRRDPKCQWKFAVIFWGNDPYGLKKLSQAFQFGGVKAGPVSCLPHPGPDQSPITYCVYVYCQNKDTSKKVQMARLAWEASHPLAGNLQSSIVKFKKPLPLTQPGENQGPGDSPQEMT

[19] = biological target: Nucleotide-binding oligomerization domain-containing protein 1 (Homo sapiens, UniProt Q9Y239); assay: blockers of NOD1 pathway activity – revised, SAR follow-up (AID 2333); type: functional
Sequence of Nucleotide-binding oligomerization domain-containing protein 1 (Q9Y239 whole entry, the tested form may be a part): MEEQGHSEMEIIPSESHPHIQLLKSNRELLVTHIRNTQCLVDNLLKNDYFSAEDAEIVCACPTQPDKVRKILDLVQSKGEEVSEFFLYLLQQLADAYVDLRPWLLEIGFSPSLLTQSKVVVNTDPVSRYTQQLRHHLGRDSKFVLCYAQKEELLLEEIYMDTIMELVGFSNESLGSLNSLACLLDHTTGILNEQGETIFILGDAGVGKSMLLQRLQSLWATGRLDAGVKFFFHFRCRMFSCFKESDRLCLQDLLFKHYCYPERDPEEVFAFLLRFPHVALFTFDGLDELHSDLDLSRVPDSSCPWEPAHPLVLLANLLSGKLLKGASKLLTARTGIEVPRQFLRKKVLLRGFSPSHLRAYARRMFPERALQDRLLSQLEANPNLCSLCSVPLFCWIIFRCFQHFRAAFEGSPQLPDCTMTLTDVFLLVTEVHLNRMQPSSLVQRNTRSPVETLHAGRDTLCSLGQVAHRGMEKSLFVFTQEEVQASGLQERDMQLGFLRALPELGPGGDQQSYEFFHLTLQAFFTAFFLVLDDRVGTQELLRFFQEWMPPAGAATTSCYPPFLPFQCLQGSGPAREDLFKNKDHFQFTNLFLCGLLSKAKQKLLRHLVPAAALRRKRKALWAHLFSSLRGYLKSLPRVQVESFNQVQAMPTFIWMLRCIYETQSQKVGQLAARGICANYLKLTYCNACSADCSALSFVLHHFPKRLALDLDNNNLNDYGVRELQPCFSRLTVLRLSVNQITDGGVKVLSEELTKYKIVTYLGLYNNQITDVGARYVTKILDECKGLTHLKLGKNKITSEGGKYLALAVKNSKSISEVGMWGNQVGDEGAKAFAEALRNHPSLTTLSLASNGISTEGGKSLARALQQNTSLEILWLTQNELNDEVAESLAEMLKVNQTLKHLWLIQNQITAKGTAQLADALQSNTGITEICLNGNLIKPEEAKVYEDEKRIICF

[20] = biological target: Nucleotide-binding oligomerization domain-containing protein 2 (Homo sapiens, UniProt Q9HC29); assay: PubChem AID 2334; type: functional
HEK293 = assay: cells; conditions: Homo sapiens;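 also: cells exposed to compound for 14 hours overnight before viability readout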
Tumor necrosis factor = Tumor necrosis factor (Homo sapiens, UniProt P01375); assay: analog potency on TNFa NF-kB signaling – cell-based, revised, SAR follow-up (AID 2337); type: functional
Sequence of Tumor necrosis factor (P01375 whole entry): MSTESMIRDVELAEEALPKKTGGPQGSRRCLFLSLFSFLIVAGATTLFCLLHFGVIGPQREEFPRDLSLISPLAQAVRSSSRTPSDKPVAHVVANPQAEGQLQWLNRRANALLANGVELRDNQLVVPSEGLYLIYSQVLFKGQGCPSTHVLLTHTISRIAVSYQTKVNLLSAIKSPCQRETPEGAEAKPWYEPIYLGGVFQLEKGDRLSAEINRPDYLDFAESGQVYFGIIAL

For O=c1c2cc(Br)ccc2nc(-c2cccc(C(F)(F)F)c2)n1O, the EC50 [1] was 15.5 µM (inconclusive), the CC50 [2] was 11.6 µM (active) and the IC50 (cells) was 8.38 µM (active). The EC50 [3] was 28.1 µM (active), the EC50 [4] was 5.96 µM (active) and the CC50 [5] was 15.8 µM (active). The EC50 [6] was 0.451 µM (active), the EC50 [7] was 4.04 µM (active) and the CC50 [8] was 13.9 µM (active). For the same molecule, the EC50 [9] was 17.3 µM (active).

In the case of O=C(O[C@H]1C[N@+]2(Br)CC[C@@H]1CC2)C(O)(c1ccccc1)c1ccccc1, the AC50 (Cytochrome P450 2D6) is reported as “inactive”, the AC50 (Cytochrome P450 1A2) is reported as “inactive” and the AC50 (Cytochrome P450 2C9) is reported as “inactive”. For the same molecule, the AC50 (Cytochrome P450 2C19) was “inactive” and the AC50 (Cytochrome P450 3A4) was “inactive”.

In the case of CCOc1ccccc1OCCCCCc1c(C)n[nH]c1C, the IC50 [10] is reported as > 64 µM (inactive), the EC50 [11] is reported as > 49.8 µM (inactive) and the EC50 [12] is reported as > 49.8 µM (not active). The EC50 [13] was 8.55 µM (active).

With CCc1nc2sc3c(Cl)ncnc3c2c2c1CCCC2 the EC50 (Mu-type opioid receptor) was > 32 µM (inactive), the IC50 [14] was greater than 32 µM and the EC50 (Beta-galactosidase) was > 31.5 µM (inactive). The IC50 [15] was 5.42 µM (active), the IC50 [16] was > 32 µM (inactive) and the EC50 [17] was > 32 µM (inactive).

With Cn1cc(/C=C2\C(=O)NC(=O)N(c3ccccc3)C2=O)c2ccccc21 the AC50 [18] was 71.9 µM (active), the AC50 (Salmon testes DNA) was 92.2 µM (active) and the AC50 (ORF 73) was 41.3 µM (active).

With O=C(Nc1nc2ccccc2n1Cc1ccccc1Cl)c1cccs1 the IC50 [19] was > 20 µM (inactive), the IC50 [20] was > 20 µM (inactive) and the IC50 (HEK293) was > 20 µM (inactive). For the same molecule, the IC50 (Tumor necrosis factor) was > 20 µM (inactive).
